{"source": "paper PMC10154249", "about": "“Unique progerin C-terminal peptide ameliorates Hutchinson–Gilford progeria syndrome phenotype by rescuing BUBR1” (Nature Aging, 2023)", "type_in_all_cases": "cell-based, human", "key": {"IMR90 cells": {"test_system": "IMR90 cells", "experiment": "CCK8 cell viability of IMR90 cells", "conditions": "CCK8, UPCP 0, 10, 20, 30 μM, 0–72 h (also Ki67, CyclinA2, survival rate)", "experimental": "Cell viability was assessed using the Cell Counting Kit-8 (CCK8) (APE, catalog no. k1018). The cells were plated in triplicate in 96-well plates (typically 10,000 cells per 100 μl per well) and were incubated with fresh medium for 24 h. Then, the cells were incubated with different concentrations (0 μM, 10 μM, 20 μM, 30 μM) of UPCP for 0 h, 24 h, 48 h or 72 h. CCK8 solution (10 μl) was added to the well for a 2 h incubation at 37 °C. Absorbance was measured at 450 nm with a 96-well plate reader (Tecan Infinite M NANO^+). Data were analyzed and further processed in i-control v.2.0 and GraphPad Prism v.7."}, "HGADFN003 cells [1]": {"test_system": "HGADFN003 cells", "experiment": "Effect of UPCP on HGADFN003 senescence after BUBR1 depletion (shBUBR1#3): SA-β-gal, Ki67, aneuploid cells", "conditions": "for Relative percentage of SA-β-gal positive cells: Fig. 5g; for Relative percentage of SA-β-gal positive cells / Relative percentage of Ki67 positive cells / Relative percentage of aneuploid cells: HGADFN003; for Relative percentage of Ki67 positive cells: Fig. 5i; for Relative percentage of aneuploid cells: Fig. 5j", "experimental": "(§1) Immunofluorescence was performed as described previously. Cells were plated on cover slips in 12-well plates, left overnight before the treatment. Cells were fixed in 1% formaldehyde in culture medium for 10 min at 37 °C and permeabilized with 0.2% Triton X-100 in PBS for 10 min at room temperature. Cells were washed twice in PBS and blocked for 1 h with 5% BSA in PBS and then incubated with primary antibodies at 4 °C overnight, washed three times in PBS and incubated with secondary antibodies for 1 h at room temperature. Cell nuclei were counterstained with a 500 nM concentration of 4,6-diamidino-2-phenylindole (DAPI) (Sigma). Images were acquired by a fluorescence microscope (OLYMPUS FV-1000, Carl Zeiss LSM880 or Leica DMi8) and analyzed with software NIS-Elements AR v.5.0.1 (Nikon), FLUOVIEW v.4.2b (OLYMPUS), ZEN v.2.3 SP1 (Carl Zeiss) and Leica Application Suite X v.3.6.0.24 (Leica). Cells were quantified by investigators who were blinded to the identity of the analyzed cell.\nSA-β-gal staining was performed as previously described. Cells were fixed in 0.5% glutaraldehyde for 15 min at room temperature, washed three times with PBS (pH 6.0) containing 1 mM MgCl2 and exposed overnight 37 °C to containing 1 mg ml^–1 5-bromo-4-chloro-3-indolyl-β-D-galactopyranoside (MCE, catalog no. HY-15934), 0.12 mM potassium ferrocyanide (Sigma, catalog no. P3289), 0.12 mM potassium ferricyanide (Sigma, catalog no. P8131) and 1 mM MgCl2 PBS buffer (pH 6.0). Cells were washed three times with H2O and observed under a microscope (OLYMPUS CKX53). SA-β-gal positive cells were quantified by investigators who were blinded to the identity of the analyzed cell.\nFor the metaphase chromosome spread assay, 1.5 × 10^6 cells were seeded in a 6 cm dish and incubated for 24 h with fresh medium. Then, colchicine was added to a final concentration of 0.2 μg ml^–1 and the cells were incubated at 37 °C for 2 h. After digestion, we collected and rinsed the cells with PBS. The cells were centrifuged at 160g for 10 min. Then, 1 M KCl was added to a final concentration of 0.075 mol l^–1 and the samples were incubated at 37 °C for 20 min. The cells were centrifuged, and the supernatant aspirated. The pellet was resuspended, and 1 ml methanol:glacial acetic acid (3:1) solution was added. The sample was rested at room temperature for 10 min. Then, the cells were centrifuged at 160g for 10 min. The supernatant was aspirated, and the pellet resuspended in 1 ml fixative for 30 min. The cells were centrifuged and the pellet was suspended in 1 ml fixative again for 30 min. The cells were centrifuged at 160g for 10 min and the supernatant aspirated. The pellet was then resuspended in a small volume of fixative (typically less than 500 μl) until the cell suspension appeared lightly milky. A small quantity of the cell suspension was held vertically in a pipette with the end about 10 cm above the slide. A single drop was released from this height onto the slide and allowed to air dry. The cells were then incubated with 500 nM of DAPI (Invitrogen) for 10 min. Slides were examined with an Olympus BX53 fluorescence microscope and the images were captured by using the Olympus IPP v.7.0 software. Aneuploid cells were quantified by investigators who were blinded to the identity of the analyzed cell."}, "BUBR1 mRNA": {"test_system": "BUBR1 mRNA", "experiment": "BUBR1 mRNA stability assay with Actinomycin D", "conditions": "HGADFN003 cells, UPCP together with Act D", "experimental": "RNA preparation was performed as described. Total RNA was extracted using Trizol reagent (TaKaRa) following the manufacturer’s instructions. cDNA was generated with M-MLV reverse transcriptase (Promega, catalog no. M170B). Reverse transcription with PCR (RT-PCR) was performed with SYBR Green Real-Time PCR Master Mix (TaKaRa). RT-PCR was carried out on a QuantStudio 3 Real-Time-PCR Instrument (ABI). Data were analyzed and further processed in QuantStuido Design and Analysis Software and GraphPad Prism v.7. Fold change in gene expression over control samples was calculated using the 2^–ΔΔCt method, where β-actin Ct values were used as an internal control. The primer sequences for PCR, synthesized by Comate Bioscience, were as follows: […]"}, "HGADFN003 cells [2]": {"test_system": "HGADFN003 cells", "experiment": "CyclinA2 immunofluorescence of HGADFN003 cells", "experimental": "as §1"}}, "note": "Entries after “also recorded” stand apart in the source; their conditions may differ."}
{"substance": "H-YGRKKRRQRRRYNLRSRTVLCGTCGQPADKASASGSGAQSPQNCSIM-OH (cysteines drawn unpaired) [UPCP, unique progerin C-terminal peptide]", "values": [{"measurement": "effect on proliferation of normal cells", "setting": "IMR90 cells", "result": "had little effect on proliferation of IMR90 cells; also recorded: no obvious effect on the proliferation of normal cells"}, {"measurement": "Relative percentage of SA-β-gal positive cells", "setting": "HGADFN003 cells [1]; UPCP+shBUBR1#3, P=0.0068 vs Mock, 0.0058 vs UPCP, replicate 1", "result": 38, "unit": "%"}, {"measurement": "Relative percentage of SA-β-gal positive cells", "setting": "HGADFN003 cells [1]; UPCP+shBUBR1#3, P=0.0068 vs Mock, 0.0058 vs UPCP, replicate 2", "result": 35, "unit": "%"}, {"measurement": "Relative percentage of SA-β-gal positive cells", "setting": "HGADFN003 cells [1]; UPCP+shBUBR1#3, P=0.0068 vs Mock, 0.0058 vs UPCP, replicate 3", "result": 41, "unit": "%"}, {"measurement": "Relative percentage of SA-β-gal positive cells", "setting": "HGADFN003 cells [1]; UPCP, Mock 48, 52, 55, P=0.0005 vs Mock, replicate 1", "result": 25, "unit": "%"}, {"measurement": "Relative percentage of SA-β-gal positive cells", "setting": "HGADFN003 cells [1]; UPCP, Mock 48, 52, 55, P=0.0005 vs Mock, replicate 2", "result": 28, "unit": "%"}, {"measurement": "Relative percentage of SA-β-gal positive cells", "setting": "HGADFN003 cells [1]; UPCP, Mock 48, 52, 55, P=0.0005 vs Mock, replicate 3", "result": 29, "unit": "%"}, {"measurement": "Relative percentage of Ki67 positive cells", "setting": "HGADFN003 cells [1]; UPCP+shBUBR1#3, P=0.0314 vs Mock, 0.0222 vs UPCP, replicate 1", "result": 52, "unit": "%"}, {"measurement": "Relative percentage of Ki67 positive cells", "setting": "HGADFN003 cells [1]; UPCP+shBUBR1#3, P=0.0314 vs Mock, 0.0222 vs UPCP, replicate 2", "result": 49, "unit": "%"}, {"measurement": "Relative percentage of Ki67 positive cells", "setting": "HGADFN003 cells [1]; UPCP+shBUBR1#3, P=0.0314 vs Mock, 0.0222 vs UPCP, replicate 3", "result": 43, "unit": "%"}, {"measurement": "Relative percentage of Ki67 positive cells", "setting": "HGADFN003 cells [1]; UPCP, Mock 35, 41, 37, P=0.0029 vs Mock, replicate 1", "result": 65, "unit": "%"}, {"measurement": "Relative percentage of Ki67 positive cells", "setting": "HGADFN003 cells [1]; UPCP, Mock 35, 41, 37, P=0.0029 vs Mock, replicate 2", "result": 58, "unit": "%"}, {"measurement": "Relative percentage of Ki67 positive cells", "setting": "HGADFN003 cells [1]; UPCP, Mock 35, 41, 37, P=0.0029 vs Mock, replicate 3", "result": 71, "unit": "%"}, {"measurement": "Relative percentage of aneuploid cells", "setting": "HGADFN003 cells [1]; UPCP+shBUBR1#3, P=0.0641 vs Mock, 0.0036 vs UPCP, replicate 1", "result": 25, "unit": "%"}, {"measurement": "Relative percentage of aneuploid cells", "setting": "HGADFN003 cells [1]; UPCP+shBUBR1#3, P=0.0641 vs Mock, 0.0036 vs UPCP, replicate 2", "result": 27, "unit": "%"}, {"measurement": "Relative percentage of aneuploid cells", "setting": "HGADFN003 cells [1]; UPCP+shBUBR1#3, P=0.0641 vs Mock, 0.0036 vs UPCP, replicate 3", "result": 24, "unit": "%"}, {"measurement": "Relative percentage of aneuploid cells", "setting": "HGADFN003 cells [1]; UPCP, Mock 28, 36, 31, P=0.005 vs Mock, replicate 1", "result": 19, "unit": "%"}, {"measurement": "Relative percentage of aneuploid cells", "setting": "HGADFN003 cells [1]; UPCP, Mock 28, 36, 31, P=0.005 vs Mock, replicate 2", "result": 16, "unit": "%"}, {"measurement": "Relative percentage of aneuploid cells", "setting": "HGADFN003 cells [1]; UPCP, Mock 28, 36, 31, P=0.005 vs Mock, replicate 3", "result": 18, "unit": "%"}, {"measurement": "senescence remission by UPCP after BUBR1 depletion", "setting": "HGADFN003 cells [1]; HGADFN003, BUBR1 shRNA (shBUBR1#3)", "result": "depletion of BUBR1 significantly antagonized the senescence remission mediated by UPCP"}, {"measurement": "BUBR1 mRNA level with Act D", "setting": "BUBR1 mRNA", "result": "mRNA levels of BUBR1 were significantly increased"}, {"measurement": "CyclinA2 positive cells", "setting": "HGADFN003 cells [2]; HGADFN003, 2h, replicate 1", "result": 25, "unit": "%"}, {"measurement": "CyclinA2 positive cells", "setting": "HGADFN003 cells [2]; HGADFN003, 2h, replicate 2", "result": 35.7143, "unit": "%"}, {"measurement": "CyclinA2 positive cells", "setting": "HGADFN003 cells [2]; HGADFN003, 2h, replicate 3", "result": 33.3333, "unit": "%"}, {"measurement": "CyclinA2 positive cells", "setting": "HGADFN003 cells [2]; HGADFN003, 4h, replicate 1", "result": 42.8571, "unit": "%"}, {"measurement": "CyclinA2 positive cells", "setting": "HGADFN003 cells [2]; HGADFN003, 4h, replicate 2", "result": 43.4783, "unit": "%"}, {"measurement": "CyclinA2 positive cells", "setting": "HGADFN003 cells [2]; HGADFN003, 4h, replicate 3", "result": 31.8182, "unit": "%"}, {"measurement": "CyclinA2 positive cells", "setting": "HGADFN003 cells [2]; HGADFN003, 6h, replicate 1", "result": 35.2941, "unit": "%"}, {"measurement": "CyclinA2 positive cells", "setting": "HGADFN003 cells [2]; HGADFN003, 6h, replicate 2", "result": 33.3333, "unit": "%"}, {"measurement": "CyclinA2 positive cells", "setting": "HGADFN003 cells [2]; HGADFN003, 6h, replicate 3", "result": 45.8333, "unit": "%"}, {"measurement": "CyclinA2 positive cells", "setting": "HGADFN003 cells [2]; HGADFN003, 24h, replicate 1", "result": 42.3077, "unit": "%"}, {"measurement": "CyclinA2 positive cells", "setting": "HGADFN003 cells [2]; HGADFN003, 24h, replicate 2", "result": 41.1765, "unit": "%"}, {"measurement": "CyclinA2 positive cells", "setting": "HGADFN003 cells [2]; HGADFN003, 24h, replicate 3", "result": 48.5714, "unit": "%"}, {"measurement": "CyclinA2 positive cells", "setting": "HGADFN003 cells [2]; HGADFN003, 48h, replicate 1", "result": 59.0909, "unit": "%"}, {"measurement": "CyclinA2 positive cells", "setting": "HGADFN003 cells [2]; HGADFN003, 48h, replicate 2", "result": 58.3333, "unit": "%"}, {"measurement": "CyclinA2 positive cells", "setting": "HGADFN003 cells [2]; HGADFN003, 48h, replicate 3", "result": 56.7568, "unit": "%"}, {"measurement": "level of CyclinA2", "setting": "HGADFN003 cells [2]; HGPS cells", "result": "increased level of CyclinA2"}]}
